Where two headings read alike, the source gives them in different places.
Key:
[1] = molecular target: recombinant PI3Kalpha (shortened form of the catalytic subunit) (Homo sapiens, UniProt P42336); experiment: BIACORE PI3K binding assay (SPR); settings: 25° C.
In short: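 Contact time was 180 s and dissociation 240 s, in HEPES pH 7.40 buffer with 2% DMSO. Solvent-corrected, double-referenced data were fitted to a 1:1 model with mass transport.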

PI3Kalpha = PI3Kalpha (Homo sapiens, UniProt P42336); experiment: Biochemical PI3Kalpha assay (neomycin SPA, lipid phosphorylation); settings: human recombinant GST-PI3K
In short: (§1)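 Recombinant PI3K incubated with lipid substrate and radioactive ATP for 120 min at room temperature with gentle stirring, then stopped with neomycin-coated PVT-SPA beads, ATP 60 mM and EDTA 6.2 mM in PBS. After 60 min bead binding and centrifugation, radioactive Ptdlns(3)P counted by scintillation.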

[2] = tested on: PI3K-dependent phosphorylation of PKB at Serin 473 in PC3 cells; experiment: Cellular PI3K assay (P-S473-PKB Luminex assay in PC3 cells); format: cell-based; settings: Homo sapiens, PC-3, 0.5 h, read-out: IC50 (cell)
In short: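 PC3 cells were exposed for 30 min under serum-free conditions to 7 concentrations of compound, then lysed. Lysates were captured overnight at 4°C on anti-total-PKB Luminex beads and detected with P-S473-PKB antibody plus PE-labelled secondary.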

PI3Kbeta = PI3Kbeta (Homo sapiens, UniProt P42338); experiment: Biochemical PI3Kbeta assay (neomycin SPA, lipid phosphorylation); settings: human recombinant GST-PI3K
In short: as §1

DNA-PK protein complex = DNA-PK protein complex (Homo sapiens, UniProt P78527); experiment: Biochemical DNA-PK assay (FlashPlate)
In short: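 Streptavidin-coated FlashPlate radiometric kinase assay, stopped with 200 mM EDTA, then wells washed with 0.9% NaCl and bound radioactivity counted. Blank (non-specific reaction) defined with a proprietary kinase inhibitor at 10 μM.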

mTOR = molecular target: T1, mTOR (Homo sapiens, UniProt P42345); experiment: Biochemical mTOR assay (Millipore mTOR assay kit)
T1 construct: purchased Millipore 14-770
Experimental: The biochemical mTOR assay was carried out by the method described in the Millipore mTOR assay kit (catalogue number 14-770).

[3] = PC3 cells, 30 min, serum-free, P-S473-PKB

Chain of recombinant PI3Kalpha (shortened form of the catalytic subunit) (P42336 151-1068 limits assumed): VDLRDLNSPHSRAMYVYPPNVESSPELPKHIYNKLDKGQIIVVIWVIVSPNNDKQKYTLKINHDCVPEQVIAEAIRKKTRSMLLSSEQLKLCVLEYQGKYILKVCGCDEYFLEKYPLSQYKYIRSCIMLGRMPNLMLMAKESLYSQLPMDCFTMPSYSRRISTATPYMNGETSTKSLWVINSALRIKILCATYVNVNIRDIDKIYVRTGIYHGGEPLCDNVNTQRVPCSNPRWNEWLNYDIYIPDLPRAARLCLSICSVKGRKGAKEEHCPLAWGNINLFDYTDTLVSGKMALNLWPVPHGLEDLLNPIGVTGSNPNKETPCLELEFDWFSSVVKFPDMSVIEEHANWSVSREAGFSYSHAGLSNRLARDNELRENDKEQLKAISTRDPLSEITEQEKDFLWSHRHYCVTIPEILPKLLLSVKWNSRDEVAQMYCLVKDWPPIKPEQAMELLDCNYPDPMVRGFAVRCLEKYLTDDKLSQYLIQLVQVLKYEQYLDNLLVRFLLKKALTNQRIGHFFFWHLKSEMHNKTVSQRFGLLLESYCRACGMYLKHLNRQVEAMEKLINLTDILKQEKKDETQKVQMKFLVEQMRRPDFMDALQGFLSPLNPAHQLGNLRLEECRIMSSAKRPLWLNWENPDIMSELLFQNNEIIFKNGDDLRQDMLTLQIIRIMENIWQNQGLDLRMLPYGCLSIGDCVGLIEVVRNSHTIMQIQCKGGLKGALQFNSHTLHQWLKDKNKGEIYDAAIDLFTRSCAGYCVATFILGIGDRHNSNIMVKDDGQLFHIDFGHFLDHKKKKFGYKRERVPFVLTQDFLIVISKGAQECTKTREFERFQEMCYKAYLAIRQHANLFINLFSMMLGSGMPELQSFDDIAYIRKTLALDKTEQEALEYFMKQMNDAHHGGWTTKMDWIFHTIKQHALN
Chain of PI3Kbeta (P42338 whole entry): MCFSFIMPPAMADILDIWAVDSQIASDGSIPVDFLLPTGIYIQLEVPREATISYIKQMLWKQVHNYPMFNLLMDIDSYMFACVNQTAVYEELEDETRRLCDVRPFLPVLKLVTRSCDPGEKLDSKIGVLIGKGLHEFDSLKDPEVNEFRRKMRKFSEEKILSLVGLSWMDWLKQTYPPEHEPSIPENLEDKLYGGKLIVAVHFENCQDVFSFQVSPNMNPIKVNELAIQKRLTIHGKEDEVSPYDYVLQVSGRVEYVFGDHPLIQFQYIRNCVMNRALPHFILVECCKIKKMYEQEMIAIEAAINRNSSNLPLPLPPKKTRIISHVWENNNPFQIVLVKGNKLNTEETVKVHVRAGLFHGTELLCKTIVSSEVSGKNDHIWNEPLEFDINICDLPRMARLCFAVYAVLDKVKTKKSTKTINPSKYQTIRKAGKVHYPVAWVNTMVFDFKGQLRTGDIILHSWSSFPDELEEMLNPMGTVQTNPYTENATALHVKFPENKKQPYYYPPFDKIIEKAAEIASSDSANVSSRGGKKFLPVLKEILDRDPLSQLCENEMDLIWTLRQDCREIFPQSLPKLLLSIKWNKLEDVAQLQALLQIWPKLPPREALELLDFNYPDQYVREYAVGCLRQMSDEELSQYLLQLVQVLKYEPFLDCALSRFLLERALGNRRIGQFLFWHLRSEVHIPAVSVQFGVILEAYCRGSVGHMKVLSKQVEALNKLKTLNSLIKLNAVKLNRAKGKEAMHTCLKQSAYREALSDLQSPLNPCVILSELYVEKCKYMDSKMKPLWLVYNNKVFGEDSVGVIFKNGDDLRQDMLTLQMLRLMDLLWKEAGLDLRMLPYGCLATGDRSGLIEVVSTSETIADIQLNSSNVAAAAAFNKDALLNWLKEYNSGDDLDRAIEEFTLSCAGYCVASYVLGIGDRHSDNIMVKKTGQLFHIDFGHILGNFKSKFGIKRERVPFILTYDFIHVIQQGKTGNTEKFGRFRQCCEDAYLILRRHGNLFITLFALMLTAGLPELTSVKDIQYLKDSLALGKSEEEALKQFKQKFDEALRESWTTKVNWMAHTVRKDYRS
Chain of PI3Kbeta (P27986 whole entry partner): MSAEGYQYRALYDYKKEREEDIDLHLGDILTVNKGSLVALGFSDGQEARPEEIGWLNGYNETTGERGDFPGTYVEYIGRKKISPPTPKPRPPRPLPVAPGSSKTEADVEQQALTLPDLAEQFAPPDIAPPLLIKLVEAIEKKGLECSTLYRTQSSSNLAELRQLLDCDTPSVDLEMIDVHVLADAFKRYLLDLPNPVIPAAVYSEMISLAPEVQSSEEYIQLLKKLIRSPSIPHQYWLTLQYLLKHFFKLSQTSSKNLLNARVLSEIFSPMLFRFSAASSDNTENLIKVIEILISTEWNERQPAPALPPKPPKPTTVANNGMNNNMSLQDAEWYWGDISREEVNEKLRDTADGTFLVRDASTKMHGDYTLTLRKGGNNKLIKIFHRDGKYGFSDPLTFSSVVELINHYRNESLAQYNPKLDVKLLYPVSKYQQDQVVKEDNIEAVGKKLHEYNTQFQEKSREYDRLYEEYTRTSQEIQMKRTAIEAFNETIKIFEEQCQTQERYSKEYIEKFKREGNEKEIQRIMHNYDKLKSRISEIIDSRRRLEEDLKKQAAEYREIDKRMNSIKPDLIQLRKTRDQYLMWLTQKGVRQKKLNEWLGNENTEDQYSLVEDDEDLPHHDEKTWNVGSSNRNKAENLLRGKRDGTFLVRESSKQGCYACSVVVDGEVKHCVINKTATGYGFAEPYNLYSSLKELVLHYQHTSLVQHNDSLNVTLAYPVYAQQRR
T1 sequence (P42345 1362-2549 limits assumed): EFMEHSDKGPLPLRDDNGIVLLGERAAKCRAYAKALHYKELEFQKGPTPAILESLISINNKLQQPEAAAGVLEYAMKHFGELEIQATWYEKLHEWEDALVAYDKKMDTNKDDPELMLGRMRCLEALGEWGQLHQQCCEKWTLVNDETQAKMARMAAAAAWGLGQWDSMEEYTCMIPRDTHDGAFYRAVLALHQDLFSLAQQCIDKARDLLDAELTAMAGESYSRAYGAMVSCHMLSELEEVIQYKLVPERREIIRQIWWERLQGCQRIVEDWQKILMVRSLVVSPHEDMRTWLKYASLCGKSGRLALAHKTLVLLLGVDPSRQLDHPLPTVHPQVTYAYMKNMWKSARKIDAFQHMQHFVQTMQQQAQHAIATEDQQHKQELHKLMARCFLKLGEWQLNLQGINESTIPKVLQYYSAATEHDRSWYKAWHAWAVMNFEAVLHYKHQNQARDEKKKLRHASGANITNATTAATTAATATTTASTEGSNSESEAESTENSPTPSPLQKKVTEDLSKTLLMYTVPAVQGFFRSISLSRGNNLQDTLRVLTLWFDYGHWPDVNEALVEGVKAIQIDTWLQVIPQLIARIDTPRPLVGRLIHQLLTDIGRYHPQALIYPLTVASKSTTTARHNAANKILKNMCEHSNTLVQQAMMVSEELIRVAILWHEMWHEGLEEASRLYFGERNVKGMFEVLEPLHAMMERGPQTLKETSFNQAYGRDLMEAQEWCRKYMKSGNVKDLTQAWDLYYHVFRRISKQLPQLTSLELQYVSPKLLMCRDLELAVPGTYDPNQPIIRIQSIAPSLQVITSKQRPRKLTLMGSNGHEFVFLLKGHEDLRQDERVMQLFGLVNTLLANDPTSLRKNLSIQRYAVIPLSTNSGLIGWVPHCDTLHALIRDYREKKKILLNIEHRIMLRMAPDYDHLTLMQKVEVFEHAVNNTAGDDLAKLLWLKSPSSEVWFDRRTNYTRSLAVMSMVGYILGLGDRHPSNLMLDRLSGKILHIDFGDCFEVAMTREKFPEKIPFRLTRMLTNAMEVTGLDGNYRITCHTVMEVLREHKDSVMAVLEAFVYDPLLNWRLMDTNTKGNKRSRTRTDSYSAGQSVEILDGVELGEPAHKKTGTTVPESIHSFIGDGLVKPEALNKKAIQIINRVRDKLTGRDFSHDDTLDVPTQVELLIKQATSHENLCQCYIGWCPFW
Chain of PI3Kalpha (P42336 whole entry): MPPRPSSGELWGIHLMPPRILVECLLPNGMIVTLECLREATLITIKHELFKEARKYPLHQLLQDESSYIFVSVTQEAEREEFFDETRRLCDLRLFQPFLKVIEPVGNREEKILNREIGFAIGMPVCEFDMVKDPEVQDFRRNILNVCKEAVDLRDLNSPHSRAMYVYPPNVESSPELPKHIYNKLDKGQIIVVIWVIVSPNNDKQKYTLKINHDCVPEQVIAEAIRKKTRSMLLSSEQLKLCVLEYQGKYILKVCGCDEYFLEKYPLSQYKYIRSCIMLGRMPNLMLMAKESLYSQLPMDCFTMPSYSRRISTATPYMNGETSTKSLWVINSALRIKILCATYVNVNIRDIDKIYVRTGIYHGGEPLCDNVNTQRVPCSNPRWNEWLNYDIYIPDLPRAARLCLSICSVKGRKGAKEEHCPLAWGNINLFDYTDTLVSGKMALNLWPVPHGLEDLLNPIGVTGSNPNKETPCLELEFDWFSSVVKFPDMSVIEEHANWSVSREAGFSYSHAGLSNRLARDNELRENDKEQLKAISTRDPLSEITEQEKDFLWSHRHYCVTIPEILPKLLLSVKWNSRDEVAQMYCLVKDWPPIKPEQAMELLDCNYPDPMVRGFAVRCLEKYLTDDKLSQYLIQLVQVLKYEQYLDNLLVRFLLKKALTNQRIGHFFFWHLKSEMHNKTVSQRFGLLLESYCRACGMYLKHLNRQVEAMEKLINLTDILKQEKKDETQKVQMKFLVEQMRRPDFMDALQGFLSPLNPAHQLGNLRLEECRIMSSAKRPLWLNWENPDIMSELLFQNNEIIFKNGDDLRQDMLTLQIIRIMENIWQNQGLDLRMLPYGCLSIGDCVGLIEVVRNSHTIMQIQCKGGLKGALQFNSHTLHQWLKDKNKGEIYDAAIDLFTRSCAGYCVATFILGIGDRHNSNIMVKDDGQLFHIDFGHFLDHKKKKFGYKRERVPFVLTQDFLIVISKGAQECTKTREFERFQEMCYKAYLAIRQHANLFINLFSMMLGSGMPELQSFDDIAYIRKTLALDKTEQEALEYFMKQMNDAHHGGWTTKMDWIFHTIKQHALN
Chain of PI3Kalpha (P27986 whole entry partner): as the sequence (P27986 whole entry partner) above

Kd [1] [nM]	IC50 (PI3Kalpha) [nM]	IC50 [2, 3] [nM]	IC50 (PI3Kbeta) [nM]	IC50 (DNA-PK protein complex) [nM]	melting point [°C]	IC50 (mTOR) [nM]	Compound	IC50 [2] [nM]
100 to 10000	100 to 10000	> 10000	> 10000	0.1 to 100	–	100 to 10000	Cn1cc(-c2cc(-c3ccc4ncncc4c3)ccn2)n(-c2ccc(C(C)(C)C#N)cc2)c1=O [Example A91, 2-Methyl-2-{4-[3-methyl-2-oxo-5-(4-quinazolin-6-ylpyridin-2-yl)-2,3-dihydro-imidazol-1-yl]phenyl}propionitrile]	–
100 to 10000	100 to 10000	> 10000	100 to 10000	0.1 to 100	–	100 to 10000	Cn1cc(-c2cc(-c3cnc4[nH]c(C(C)(C)C)cc4c3)ccn2)n(-c2ccc(C(C)(C)C#N)cc2)c1=O [Example A92, 2-(4-{5-[4-(2-tert-Butyl-1H-pyrrolo[2,3-b]pyridin-5-yl)pyridin-2-yl]-3-methyl-2-oxo-2,3-dihydroimidazol-1-yl}phenyl)-2-methylpropionitrile]	–
0.1 to 100	100 to 10000	100 to 10000	100 to 10000	0.1 to 100	–	100 to 10000	Cn1cc(-c2cc(-c3ccc(N)c(C(F)(F)F)c3)ccn2)n(-c2ccc(C(C)(C)C#N)cc2)c1=O [Example A93, 2-(4-{5-[4-(4-Amino-3-trifluoromethylphenyl)pyridin-2-yl]-3-methyl-2-oxo-2,3-dihydroimidazol-1-yl}phenyl)-2-methylpropionitrile]	–
100 to 10000	100 to 10000	100 to 10000	100 to 10000	0.1 to 100	–	100 to 10000	Cn1cc(-c2cc(-c3cnc4[nH]ccc4c3)ccn2)n(-c2cc(F)cc(C#N)c2)c1=O [Example A96, 3-Fluoro-5-{3-methyl-2-oxo-5-[4-(1H-pyrrolo[2,3-b]pyridin-5-yl)pyridin-2-yl]-2,3-dihydroimidazol-1-yl}benzonitrile]	–
–	–	100 to 10000	–	100 to 10000	268	–	Cn1cc(-c2cc(-c3cnc4[nH]cc(F)c4c3)ccn2)n(-c2ccc(F)c(C(F)(F)F)c2)c1=O [Example A105, 4-[4-(3-Fluoro-1H-pyrrolo[2,3-b]pyridin-5-yl)pyridin-2-yl]-3-(4-fluoro-3-trifluoro-methylphenyl)-1-methyl-1,3-dihydroimidazol-2-one]	–

The remaining lines, values behind:

Compound	Kd [1] [nM]	IC50 (PI3Kalpha) [nM]	IC50 [2, 3] [nM]	IC50 (PI3Kbeta) [nM]	IC50 (DNA-PK protein complex) [nM]	melting point [°C]	IC50 (mTOR) [nM]	IC50 [2] [nM]
O=c1[nH]cc(-c2cc(-c3cnc4ccccc4c3)ccn2)n1-c1ccc(N2CCNCC2)c(C(F)(F)F)c1 [Example A5, 1-(4-piperazin-1-yl-3-trifluoromethylphenyl)-5-(4-quinolin-3-ylpyridin-2-yl)-1,3-dihydroimidazol-2-one]	100 to 10000	100 to 10000	100 to 10000	100 to 10000	100 to 10000	155	–	–
Cn1cc(-c2cc(-c3ccncc3)ccn2)n(-c2ccc(C(C)(C)C#N)cc2)c1=O [Example A11, 2-[4-(5-[4,4′]Bipyridinyl-2-yl-3-methyl-2-oxo-2,3-dihydroimidazol-1-yl)phenyl]-2-methylpropionitrile]	–	100 to 10000	> 10000	> 10000	0.1 to 100	226	–	–
Cn1cc(-c2cc(-c3cnc4ccccc4c3)ccn2)n(-c2ccc(C(C)(C)CN)cc2)c1=O [Example A30, 3-[4-(2-Amino-1,1-dimethylethyl)phenyl]-1-methyl-4-(4-quinolin-3-ylpyridin-2-yl)-1,3-dihydroimidazol-2-one]	–	100 to 10000	> 10000	> 10000	100 to 10000	132	–	–
Cn1cc(-c2cc(-c3cnc4c(c3)CCC(=O)N4)ccn2)n(-c2ccc(C(C)(C)C#N)cc2)c1=O [Example A45, 2-Methyl-2-(4-{3-methyl-2-oxo-5-[4-(7-oxo-5,6,7,8-tetrahydro-[1,8]naphthyridin-3-yl)pyridin-2-yl]-2,3-dihydroimidazol-1-yl}phenyl)propionitrile]	–	0.1 to 100	100 to 10000	100 to 10000	0.1 to 100	284	–	–
Cn1cc(-c2cc(-c3ccc(N)cc3)ccn2)n(-c2ccc(N3CCNCC3)c(C(F)(F)F)c2)c1=O [Example A60, 4-[4-(4-Aminophenyl)pyridin-2-yl]-1-methyl-3-(4-piperazin-1-yl-3-trifluoromethyl-phenyl)-1,3-dihydroimidazol-2-one]	100 to 10000	100 to 10000	100 to 10000	> 10000	0.1 to 100	–	> 10000	–
Cn1cc(-c2cc(-c3cnc4[nH]ncc4c3)ccn2)n(-c2cccc(C#N)c2)c1=O [Example A63, 3-{3-Methyl-2-oxo-5-[4-(1H-pyrazolo[3,4-b]pyridin-5-yl)pyridin-2-yl]-2,3-dihydro-imidazol-1-yl}benzonitrile]	0.1 to 100	0.1 to 100	100 to 10000	100 to 10000	0.1 to 100	–	0.1 to 100	–
CC(=O)N1CCN(c2ccc(-n3c(-c4cc(-c5cnc6[nH]ccc6c5)ccn4)cn(C)c3=O)cc2C(F)(F)F)CC1 [Example A72, 3-[4-(4-Acetylpiperazin-1-yl)-3-trifluoromethylphenyl]-1-methyl-4-[4-(1H-pyrrolo[2,3-b]pyridin-5-yl)pyridin-2-yl]-1,3-dihydroimidazol-2-one]	0.1 to 100	100 to 10000	0.1 to 100	100 to 10000	0.1 to 100	–	100 to 10000	–
COc1cccc(-n2c(-c3cc(-c4cnc5[nH]ccc5c4)ccn3)cn(C)c2=O)c1 [Example A73, 3-(3-Methoxyphenyl)-1-methyl-4-[4-(1H-pyrrolo[2,3-b]pyridin-5-yl)pyridin-2-yl]-1,3-dihydroimidazol-2-one]	0.1 to 100	100 to 10000	100 to 10000	100 to 10000	0.1 to 100	–	0.1 to 100	–
Cc1cc2cc(-c3ccnc(-c4cn(C)c(=O)n4-c4ccc(C(C)(C)C#N)cc4)c3)cnc2[nH]1 [Example A85, 2-Methyl-2-(4-{3-methyl-5-[4-(2-methyl-1H-pyrrolo[2,3-b]pyridin-5-yl)pyridin-2-yl]-2-oxo-2,3-dihydroimidazol-1-yl}phenyl)propionitrile]	0.1 to 100	100 to 10000	–	100 to 10000	0.1 to 100	–	100 to 10000	100 to 10000
CN1CCN(c2ccc(-n3c(-c4cc(-c5cnc6[nH]c(C(C)(C)C)cc6c5)ccn4)cn(C)c3=O)cc2C(F)(F)F)CC1 [Example A86, 4-[4-(2-tert-Butyl-1H-pyrrolo[2,3-b]pyridin-5-yl)pyridin-2-yl]-1-methyl-3-[4-(4-methylpiperazin-1-yl)-3-trifluoromethylphenyl]-1,3-dihydroimidazol-2-one]	100 to 10000	100 to 10000	100 to 10000	100 to 10000	0.1 to 100	–	100 to 10000	–
CN1CCN(c2ccc(-n3c(-c4cc(-c5cnc6[nH]c(C(F)(F)F)cc6c5)ccn4)cn(C)c3=O)cc2C(F)(F)F)CC1 [Example A87, 1-Methyl-3-[4-(4-methylpiperazin-1-yl)-3-trifluoromethylphenyl]-4-[4-(2-trifluoro-methyl-1H-pyrrolo[2,3-b]pyridin-5-yl)pyridin-2-yl]-1,3-dihydroimidazol-2-one]	100 to 10000	100 to 10000	100 to 10000	100 to 10000	0.1 to 100	–	100 to 10000	–

Reference: US8802866B2, “Pyridinylimidazolone derivatives for the inhibition of PI3 kinases” (Merck Patent GmbH, priority 2009, dated 2014)
